Source: publication PMC9097129, “C-terminal mini-PEGylation of a marine peptide N6 had potent antibacterial and anti-inflammatory properties against Escherichia coli and Salmonella strains in vitro and in vivo” (BMC Microbiology, 2022)
Values after ≈ are worked out from the molar mass of the structure shown. Bridge positions count the residues as written; N and C are the ends. Square brackets hold non-standard residues; d marks the D form. Peptide text beside a SMILES is read from it. AEEA = NCCOCCOCC(=O)O

Legend:
E. coli ATCCO157 = assay type: cell-based, Escherichia coli; settings: MHB, 1 × 10^5 CFU/mL, 37 °C, 18 – 24 h, triplicate
Protocol: (§1) The MIC was determined according to the method developed by Clinical and Laboratory Standards Institute (CLSI). The strains were cultured in Mueller–Hinton Broth medium (MHB) at the appropriate temperature until mid-log phase. A series of two-fold dilutions of N6 and PEGylated N6 (10 μL) and bacterial suspension (1 × 10^5 CFU/mL, 90 μL) were added into 96-well plates and incubated at 37 °C for 18 – 24 h. PBS and MHB were used as the negative and blank control, respectively. All assays were conducted in triplicate.

E. coli CVCC1515 = assay type: cell-based, Escherichia coli
Protocol: as §1

E. coli CVCC195 = assay type: cell-based, Escherichia coli
Protocol: as §1

E. coli CVCC25922 = assay type: cell-based, Escherichia coli
Protocol: as §1

P. aeruginosa CICC21630 = assay type: cell-based
Protocol: as §1

S. aureus ATCC25923 = assay type: cell-based
Protocol: as §1

S. aureus ATCC43300 = assay type: cell-based
Protocol: as §1

S. aureus ATCC546 = assay type: cell-based
Protocol: as §1

S. enteritidis CVCC3377 = assay type: cell-based
Protocol: as §1

S. hyicus NCTC10350 = assay type: cell-based
Protocol: as §1

S. typhimurium ATCC14028 = assay type: cell-based
Protocol: as §1

S. pullorum CVCC1789 = assay type: cell-based, Salmonella pullorum
Protocol: as §1

S. pullorum CVCC1802 = assay type: cell-based, Salmonella pullorum
Protocol: as §1

S. pullorum CVCC533 = assay type: cell-based, Salmonella pullorum
Protocol: as §1

C. albicans CMCC98001 = assay type: cell-based, Candida albicans
Protocol: as §1

Structure (SMILES): CC(C)[C@@H]1NC(=O)CNC(=O)[C@H](CC(N)=O)NC(=O)[C@H](CCCNC(=N)N)NC(=O)[C@H](Cc2ccc(O)cc2)NC(=O)[C@H](C(C)C)NC(=O)[C@@H](NC(=O)[C@@H](NC(=O)[C@H](CC(N)=O)NC(=O)[C@H](Cc2c[nH]c3ccccc23)NC(=O)[C@H](C)NC(=O)[C@H](Cc2ccccc2)NC(=O)CNC(=O)COCCOCCN)C(C)C)CSSC[C@@H](C(=O)N[C@@H](Cc2c[nH]cn2)C(=O)N[C@@H](CCCNC(=N)N)C(=O)N[C@@H](CCCNC(=N)N)C(=O)N[C@@H](C)C(=O)N[C@@H](CC(N)=O)C(=O)O)NC(=O)[C@H](C(C)C)NC(=O)[C@H](CCCNC(=N)N)NC1=O [N6-NH2-miniPEG] (H-[AEEA]GFAWNVCVYRNGVRVCHRRAN-OH; disulfide 8-17)
- MIC (E. coli ATCCO157): 6.10 µM (≈ 16 µg/mL)
- MIC (E. coli CVCC1515): 6.1 µM (≈ 16 µg/mL)
- MIC (E. coli CVCC195): 6.1 µM (≈ 16 µg/mL)
- MIC (E. coli CVCC25922): 3.05 µM (≈ 7.99 µg/mL)
- MIC (P. aeruginosa CICC21630): 24.42 µM (≈ 64 µg/mL)
- MIC (S. aureus ATCC25923): > 48.84 µM
- MIC (S. aureus ATCC43300): 48.84 µM (≈ 128 µg/mL)
- MIC (S. aureus ATCC546): 48.84 µM (≈ 128 µg/mL)
- MIC (S. enteritidis CVCC3377): 6.10 µM (≈ 16 µg/mL)
- MIC (S. hyicus NCTC10350): > 48.84 µM
- MIC (S. typhimurium ATCC14028): 6.10 µM (≈ 16 µg/mL)
- MIC (S. pullorum CVCC1789): 6.10 µM (≈ 16 µg/mL)
- MIC (S. pullorum CVCC1802): 6.10 µM (≈ 16 µg/mL)
- MIC (S. pullorum CVCC533): 12.21 µM (≈ 32 µg/mL)
- MIC (C. albicans CMCC98001): > 48.84 µM
